Drawing on US20150225369A1, “DDR2 INHIBITORS FOR THE TREATMENT OF OSTEOARTHRITIS” (Merck Patent GmbH, priority 2012, published 2015), this text covers IC50 for 24 compounds.

This assay deals with T1, His-tagged human recombinant DDR-2 kinase domain (His-TEV-DDR2 467-855 aa) (Homo sapiens, UniProt Q16832).
T1 construct: His-TEV-DDR2 467-855 aa
T1 sequence (Q16832 467-855): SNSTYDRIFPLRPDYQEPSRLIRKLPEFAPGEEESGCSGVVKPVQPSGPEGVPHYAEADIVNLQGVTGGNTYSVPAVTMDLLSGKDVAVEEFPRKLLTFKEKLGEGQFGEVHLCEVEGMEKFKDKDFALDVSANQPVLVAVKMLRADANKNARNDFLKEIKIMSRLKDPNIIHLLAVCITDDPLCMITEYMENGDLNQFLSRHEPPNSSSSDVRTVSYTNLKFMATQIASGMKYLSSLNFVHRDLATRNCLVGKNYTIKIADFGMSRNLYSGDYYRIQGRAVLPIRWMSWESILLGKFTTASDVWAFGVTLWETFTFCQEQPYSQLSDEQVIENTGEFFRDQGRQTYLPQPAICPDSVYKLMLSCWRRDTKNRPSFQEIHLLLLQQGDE
Description: Autophosphorylation assay for biochemical activity testing of DDR2 (HTRF). The conditions noted are these: biochemical DDR2 autophosphorylation. Put shortly: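 Phospho-tyrosine was detected by HTRF between XL665 anti-6His and cryptate anti-phosphotyrosine PT66 antibodies, using the emission ratio. Inhibition was referenced to the inhibitor-free reaction.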
(TR-FRET usually uses a lanthanide donor and a delayed reading to cut background.)
As to `CNC(=O)c1cc(Oc2ccc(CNC(=O)Nc3ccccc3)cc2)ccn1` [compound 181, 4-{4-[(3-Phenyl-ureido)-methyl]-phenoxy}-pyridine-2-carboxylic acid methylamide], the IC50 (in general, the concentration that inhibits the measured activity by half) came out at 4900 nM.

For `CNC(=O)c1cc(Oc2ccc(CNC(=O)Nc3cc(C)c(Cl)cc3OCCNC(=O)C(F)(F)F)cc2)ccn1` [compound 187, 4-[4-(3-{4-Chloro-5-methyl-2-[2-(2,2,2-trifluoro-acetylamino)-ethoxy]-phenyl}-ureidomethyl)-phenoxy]-pyridine-2-carboxylic acid methylamide], the IC50 came out at 660 nM.

`CNC(=O)c1cc(Oc2ccc(CNC(=O)Nc3cc(C)c(Cl)cc3OCCNS(C)(=O)=O)cc2)ccn1` [compound 193, 4-(4-{3-[4-Chloro-2-(2-methanesulfonylamino-ethoxy)-5-methyl-phenyl]-ureidomethyl}-phenoxy)-pyridine-2-carboxylic acid methylamide]: the 50% inhibitory concentration (IC50) turned out to be 180 nM.

In the case of `CNC(=O)c1cc(Oc2ccc(CNC(=O)Nc3cc(C(F)(F)F)c(Cl)cc3OCCNS(C)(=O)=O)cc2)ccn1` [compound 194, 4-(4-{3-[4-Chloro-2-(2-methanesulfonylamino-ethoxy)-5-trifluoromethyl-phenyl]-ureidomethyl}-phenoxy)-pyridine-2-carboxylic acid methylamide], the IC50 stood at 64 nM.

On to `CNC(=O)c1cc(Oc2ccc(CNC(=O)Nc3cc(C(F)(F)F)ccc3OCCO)cc2)ccn1` [compound 197, 4-(4-{3-[2-(2-Hydroxy-ethoxy)-5-trifluoromethyl-phenyl]-ureidomethyl}-phenoxy)-pyridine-2-carboxylic acid methylamide], for which the IC50 was 96 nM.

As to `CNC(=O)c1cc(Oc2ccc(CNC(=O)Nc3cc(C(F)(F)F)ccc3OC(C)(C)C(N)=O)cc2)ccn1` [compound 199, 4-(4-{3-[2-(1 -Carbamoyl-1-methyl-ethoxy)-5-trifluoromethyl-phenyl]-ureidomethyl}-phenoxy)-pyridine-2-carboxylic acid methylamide], the IC50 is not below 100000 nM.

Turning to `CNC(=O)c1cc(Oc2ccc(CNC(=O)Nc3cc(Cl)c(C)cc3OC)cc2F)ccn1` [compound 216, 4-{4-[3-(5-Chloro-2-methoxy-4-methyl-phenyl)-ureidomethyl]-2-fluoro-phenoxy}-pyridine-2-carboxylic acid methylamide], the IC50 was found to be 43 nM.

`CNC(=O)c1cc(Oc2ccc(CNC(=O)Nc3cc(C(F)(F)F)ccc3OC)cc2F)ccn1` [compound 217, 4-{2-Fluoro-4-[3-(2-methoxy-5-trifluoromethyl-phenyl)-ureidomethyl]-phenoxy}-pyridine-2-carboxylic acid methylamide]: the IC50 was 21 nM.

Turning to `CNC(=O)c1cc(Oc2ccc(CNC(=O)Nc3cc(C)c(Cl)cc3OC)cc2F)ccn1` [compound 218, 4-{4-[3-(4-Chloro-2-methoxy-5-methyl-phenyl)-ureidomethyl]-2-fluoro-phenoxy}-pyridine-2-carboxylic acid methylamide], the IC50 came to 150 nM.

With `CCOc1ccc(C(F)(F)F)cc1NC(=O)NCc1ccc(Oc2ccnc(C(=O)NC)c2)c(C)c1` [compound 229, 4-{4-[3-(2-Ethoxy-5-trifluoromethyl-phenyl)-ureidomethyl]-2-methyl-phenoxy}-pyridine-2-carboxylic acid methylamide], the IC50 worked out at 84 nM.

For the compound `CCOc1ccc(C(F)(F)F)cc1NC(=O)NCc1ccc(Oc2ccnc(C(=O)NC)c2)cc1` [compound 230, 4-{4-[3-(2-Ethoxy-5-trifluoromethyl-phenyl)-ureidomethyl]-phenoxy}-pyridine-2-carboxylic acid methylamide], the half-inhibitory concentration (IC50) turned out to be 89 nM.

For the compound `CNC(=O)c1cc(Oc2ccc(CNC(=O)Nc3cc(C(F)(F)F)c(Cl)cc3OC)cc2F)ccn1` [compound 231, 4-{4-[3-(4-Chloro-2-methoxy-5-trifluoromethyl-phenyl)-ureidomethyl]-2-fluoro-phenoxy}-pyridine-2-carboxylic acid methylamide], the IC50 amounted to 100 nM.

Regarding `CNC(=O)c1cc(Oc2ccc(CNC(=O)Nc3cc(C(F)(F)F)c(Cl)cc3OCCN3C(=O)c4ccccc4C3=O)cc2)ccn1` [compound 242, 4-[4-(3-{4-Chloro-2-[2-(1,3-dioxo-1,3-dihydro-isoindol-2-yl)-ethoxy]-5-trifluoromethyl-phenyl}-ureidomethyl)-phenoxy]-pyridine-2-carboxylic acid methylamide], the IC50 turned out to be 440 nM.

In the case of `CNC(=O)c1cc(Oc2ccc(CNC(=O)Nc3cc(C)c(Cl)cc3OCCN(C)C(=O)OC(C)(C)C)cc2)ccn1` [compound 244, [2-(5-Chloro-4-methyl-2-{3-[4-(2-methylcarbamoyl-pyridin-4-yloxy)-benzyl]-ureido}-phenoxy)-ethyl]-methyl-carbamic acid tert-butyl ester], the half-inhibitory concentration (IC50) came to 620 nM.

Turning to `O=C(NCc1ccc(Oc2ccncc2)cc1)Nc1ccccc1` [compound 245, 1-Phenyl-3-[4-(pyridin-4-yloxy)-benzyl]-urea], the IC50 was 9200 nM.

Turning to `Cc1cc(NC(=O)NCc2ccc(Oc3ccncc3)c(C)c2)c(OCCN(C)C)cc1Cl` [compound 246, 1-[4-Chloro-2-(2-dimethylamino-ethoxy)-5-methyl-phenyl]-3-[3-methyl-4-(pyridin-4-yloxy)-benzyl]-urea], the IC50 worked out at 230 nM.

As for `CC(=O)Nc1cc(Oc2ccc(CNC(=O)Nc3cc(C)c(Cl)cc3OCCN(C)C)cc2C)ccn1` [compound 247, N-[4-(4-{3-[4-Chloro-2-(2-dimethylamino-ethoxy)-5-methyl-phenyl]-ureidomethyl}-2-methyl-phenoxy)-pyridin-2-yl]-acetamide], the IC50 stood at 6 nM.

As for `COc1cc(Cl)c(C)cc1NC(=O)NCc1ccc(Oc2ccncc2)c(C)c1` [compound 248, 1-(4-Chloro-2-methoxy-5-methyl-phenyl)-3-[3-methyl-4-(pyridin-4-yloxy)-benzyl]-urea], the half-inhibitory concentration (IC50) stood at 770 nM.

As to `Cc1cc2nccc(Oc3ccc(CNC(=O)Nc4ccccc4)cc3)c2o1` [compound 249, 1-[4-(2-Methyl-furo[3,2-b]pyridin-7-yloxy)-benzyl]-3-phenyl-urea], the 50% inhibitory concentration (IC50) was determined as 650 nM.

On to `Cc1cc(NC(=O)NCc2ccc(Oc3ccncn3)c(C)c2)c(OCCN(C)C)cc1Cl` [compound 250, 1-[4-Chloro-2-(2-dimethylamino-ethoxy)-5-methyl-phenyl]-3-[3-methyl-4-(pyrimidin-4-yloxy)-benzyl]-urea], for which the IC50 was 1200 nM.

Take `Cc1cc(NC(=O)NCc2ccc(Oc3cc(N)ncn3)c(C)c2)c(OCCN(C)C)cc1Cl` [compound 251, 1-[4-(6-Amino-pyrimidin-4-yloxy)-3-methyl-benzyl]-3-[4-chloro-2-(2-dimethylamino-ethoxy)-5-methyl-phenyl]-urea]: the IC50 is 440 nM.

As for `COc1cc(Cl)c(C)cc1NC(=O)NCc1ccc(Oc2ccnc3cc(C)oc23)c(C)c1` [compound 252, 1-(4-Chloro-2-methoxy-5-methyl-phenyl)-3-[3-methyl-4-(2-methyl-furo[3,2-b]pyridin-7-yloxy)-benzyl]-urea], the IC50 came out at 750 nM.

`Cc1cc2nccc(Oc3ccc(CNC(=O)Nc4cc(C)c(Cl)cc4OCCN(C)C)cc3C)c2o1` [compound 253, 1-[4-Chloro-2-(2-dimethylamino-ethoxy)-5-methyl-phenyl]-3-[3-methyl-4-(2-methyl-furo[3,2-b]pyridin-7-yloxy)-benzyl]-urea]: the concentration for half-maximal inhibition (IC50) stood at 70 nM.

Take `Cc1cc(NC(=O)NCc2ccc(Oc3ccnc(N)c3)c(C)c2)c(OCCN(C)C)cc1Cl` [compound 254, 1-[4-(2-Amino-pyridin-4-yloxy)-3-methyl-benzyl]-3-[4-chloro-2-(2-dimethylamino-ethoxy)-5-methyl-phenyl]-urea]: the IC50 was found to be 31 nM.
